Values after ≈ are worked out from the molar mass of the structure shown. “Also recorded” adds a separate entry of the source. Where two headings read alike, the source gives them in different places.
Legend:
[1] = system: vancomycin-sensitive Staphylococcus aureus Newman strain; assay: In vitro antibacterial activity assay (MIC, CLSI dilution method); type: cell-based; conditions: Staphylococcus aureus, S. aureus Newman, 37° C., 16 h
[2] = system: vancomycin-middle resistant Staphylococcus aureus Mu50 strain; assay: as above; type: cell-based
[3] = system: Staphylococcus aureus USA300 LAC strain (CA-MRSA); type: in vivo
[4] = In vivo pharmacokinetic assay in mice
[5] = Staphylococcus aureus, 16 h, read-out: MIC Mu50
[6] = Staphylococcus aureus, 16 h, S. aureus Mu50, 37° C., read-out: MIC Mu50
[7] = male CD-1 mice, intravenous single dose 5 mg/kg
[8] = male, CD-1, mouse, in vivo, iv, 5 mg/kg

| Compound | MIC [1] [µg/mL] | MIC [2, 5] [µg/mL] | MIC ([1]; NEWMAN) [µg/mL] | MIC [2, 6] [µg/mL] | other results |
| --- | --- | --- | --- | --- | --- |
| CN[C@H](CC(C)C)C(=O)N[C@H]1C(=O)N[C@@H](CC(N)=O)C(=O)N[C@H]2C(=O)N[C@H]3C(=O)N[C@H](C(=O)N[C@H](C(=O)O)c4cc(O)c(CNCCCNC(=O)[C@H](O)[C@@H](O)[C@H](O)[C@H](O)CO)c(O)c4-c4cc3ccc4O)[C@H](O)c3ccc(c(Cl)c3)Oc3cc2cc(c3OC2O[C@H](CO)C(O)C(O)[C@H]2O[C@@H]2CC(C)[C@@H](O)C(C)(NCc3ccc(-c4ccc(Cl)cc4)cc3)C2)Oc2ccc(cc2Cl)[C@H]1O (stereo partly shown) [Van014] | 0.25 (≈ 0.131 µM) | 0.125 (≈ 0.0654 µM) | – | – | – |
| CCCCCCCCCCNCCNC1(C)C[C@H](O[C@H]2C(Oc3c4cc5cc3Oc3ccc(cc3Cl)[C@@H](O)[C@@H](NC(=O)[C@@H](CC(C)C)NC)C(=O)N[C@@H](CC(N)=O)C(=O)N[C@H]5C(=O)N[C@H]3C(=O)N[C@H](C(=O)N[C@H](C(=O)O)c5cc(O)c(CNCCO[C@@H]6OC(CO)[C@@H](O)C(O)C6O)c(O)c5-c5cc3ccc5O)[C@H](O)c3ccc(c(Cl)c3)O4)O[C@H](CO)C(O)C2O)OC(C)[C@H]1O (stereo partly shown) [Van004] | – | – | 1 (≈ 0.535 µM) | 4 (≈ 2.14 µM) | – |
| CN[C@H](CC(C)C)C(=O)N[C@H]1C(=O)N[C@@H](CC(N)=O)C(=O)N[C@H]2C(=O)N[C@@H]3C(=O)N[C@H](C(=O)N[C@H](C(=O)O)c4cc(O)c(CNC5C(O)OC(CO)[C@H](O)[C@@H]5O)c(O)c4-c4cc3ccc4O)[C@H](O)c3ccc(c(Cl)c3)Oc3cc2cc(c3O[C@@H]2O[C@H](CO)C(O)C(O)[C@H]2O[C@H]2CC(C)(NCc3ccc(C#C[Si](C)(C)C)cc3)[C@H](O)[C@H](C)O2)Oc2ccc(cc2Cl)[C@H]1O (stereo partly shown) [Van033] | 0.5 (≈ 0.274 µM) | – | – | – | MIC ([2]; Staphylococcus aureus; S. aureus Mu50, 37° C., 16 h; read-out: MIC Mu50): 2 µg/mL (≈ 1.09 µM) |
| C#Cc1ccc(CNC2(C)C[C@H](O[C@H]3C(Oc4c5cc6cc4Oc4ccc(cc4Cl)[C@@H](O)[C@@H](NC(=O)[C@@H](CC(C)C)NC)C(=O)N[C@@H](CC(N)=O)C(=O)N[C@H]6C(=O)N[C@H]4C(=O)N[C@H](C(=O)N[C@H](C(=O)O)c6cc(O)c(CNCCCNC(=O)[C@H](O)[C@@H](O)[C@H](O)[C@H](O)CO)c(O)c6-c6cc4ccc6O)[C@H](O)c4ccc(c(Cl)c4)O5)O[C@H](CO)C(O)C3O)CC(C)[C@H]2O)cc1 (stereo partly shown) [Van029] | – | – | 4 (≈ 2.19 µM) | 8 (≈ 4.38 µM) | – |
| CCCCCCCCCCNC1(C)C[C@H](O[C@H]2C(Oc3c4cc5cc3Oc3ccc(cc3Cl)[C@@H](O)[C@@H](NC(=O)[C@@H](CC(C)C)NC)C(=O)N[C@@H](CC(N)=O)C(=O)N[C@H]5C(=O)N[C@H]3C(=O)N[C@H](C(=O)N[C@H](C(=O)O)c5cc(O)c(CNCCCNC(=O)[C@H](O)[C@@H](O)[C@H](O)[C@H](O)CO)c(O)c5-c5cc3ccc5O)[C@H](O)c3ccc(c(Cl)c3)O4)O[C@H](CO)C(O)C2O)CC(C)[C@H]1O (stereo partly shown) [Van024] | – | – | 0.125 (≈ 0.0675 µM) | 0.5 (≈ 0.27 µM) | – |
| CN[C@H](CC(C)C)C(=O)N[C@H]1C(=O)N[C@@H](CC(N)=O)C(=O)N[C@H]2C(=O)N[C@@H]3C(=O)N[C@H](C(=O)N[C@H](C(=O)O)c4cc(O)c(CNC5C(O)OC(CO)[C@H](O)[C@@H]5O)c(O)c4-c4cc3ccc4O)[C@H](O)c3ccc(c(Cl)c3)Oc3cc2cc(c3O[C@@H]2O[C@H](CO)C(O)C(O)[C@H]2O[C@H]2CC(C)(NCc3ccc(-c4ccc(Cl)cc4)cc3)[C@H](O)[C@H](C)O2)Oc2ccc(cc2Cl)[C@H]1O (stereo partly shown) [Van038] | ≤ 0.0625 | 0.125 (≈ 0.0679 µM) | – | – | in vivo antibacterial activity against methicillin-resistant Staphylococcus aureus, comparison with positive controls ([3]; BALB/c mice, 7 mg/kg i.p., 10 days, 7 mg/kg): better activity than vancomycin; also recorded: comparable activities with telavancin; survival rate ([3]; female BALB/c mice, USA300 LAC retro-orbital, single dose 7 mg/kg intraperitoneally 1 h after infection, after 10 days): 93.3%; CL_obs [4, 7]: 7.0 ± 1.38 mL/min/kg; VSS_obs [4, 7]: 1.754 ± 0.38 L/kg; AUC(0-inf) [4, 8]: 12200 ± 2490 ng·h/mL; AUC(0-t) [4, 8]: 12100 ± 2480 ng·h/mL; MRT inf [4, 8]: 4.18 ± 0.34 h; half-life [4, 8]: 3.81 ± 0.31 h |
| CN[C@H](CC(C)C)C(=O)N[C@H]1C(=O)N[C@@H](CC(N)=O)C(=O)N[C@H]2C(=O)N[C@H]3C(=O)N[C@H](C(=O)N[C@H](C(=O)O)c4cc(O)c(CNCCCNC(=O)[C@H](O)[C@@H](O)[C@H](O)[C@H](O)CO)c(O)c4-c4cc3ccc4O)[C@H](O)c3ccc(c(Cl)c3)Oc3cc2cc(c3OC2O[C@H](CO)C(O)C(O)[C@H]2O[C@@H]2CC(C)[C@@H](O)C(C)(NCc3ccc(OCc4cccc(-c5ccccc5)c4C)c(Cl)c3)C2)Oc2ccc(cc2Cl)[C@H]1O (stereo partly shown) [Van017] | – | – | 0.5 (≈ 0.246 µM) | 1 (≈ 0.492 µM) | – |
| CN[C@H](CC(C)C)C(=O)N[C@H]1C(=O)N[C@@H](CC(N)=O)C(=O)N[C@H]2C(=O)N[C@@H]3C(=O)N[C@H](C(=O)N[C@H](C(=O)NCCCNC(=O)[C@H](O)[C@@H](O)[C@H](O)[C@H](O)CO)c4cc(O)cc(O)c4-c4cc3ccc4O)[C@H](O)c3ccc(c(Cl)c3)Oc3cc2cc(c3OC2O[C@H](CO)C(O)C(O)[C@H]2O[C@H]2CC(C)(NCc3ccc(-c4ccc(Cl)cc4)cc3)[C@H](O)C(C)O2)Oc2ccc(cc2Cl)[C@H]1O (stereo partly shown) [Van023] | 2 (≈ 1.06 µM) | 4 (≈ 2.12 µM) | – | – | – |
| CCCCCc1ccc(CNC2(C)C[C@H](O[C@@H]3C(O)C(O)[C@@H](CO)O[C@H]3Oc3c4cc5cc3Oc3ccc(cc3Cl)[C@@H](O)[C@@H](NC(=O)[C@@H](CC(C)C)NC)C(=O)N[C@@H](CC(N)=O)C(=O)N[C@H]5C(=O)N[C@@H]3C(=O)N[C@H](C(=O)N[C@H](C(=O)O)c5cc(O)c(CNC6C(O)OC(CO)[C@H](O)[C@@H]6O)c(O)c5-c5cc3ccc5O)[C@H](O)c3ccc(c(Cl)c3)O4)O[C@@H](C)[C@H]2O)cc1 (stereo partly shown) [Van036] | 0.25 (≈ 0.139 µM) | 0.5 (≈ 0.278 µM) | – | – | – |
| C#Cc1ccc(CNC2(C)C[C@H](O[C@@H]3C(O)C(O)[C@@H](CO)O[C@H]3Oc3c4cc5cc3Oc3ccc(cc3Cl)[C@@H](O)[C@@H](NC(=O)[C@@H](CC(C)C)NC)C(=O)N[C@@H](CC(N)=O)C(=O)N[C@H]5C(=O)N[C@@H]3C(=O)N[C@H](C(=O)N[C@H](C(=O)O)c5cc(O)c(CNC6C(O)OC(CO)[C@H](O)[C@@H]6O)c(O)c5-c5cc3ccc5O)[C@H](O)c3ccc(c(Cl)c3)O4)O[C@@H](C)[C@H]2O)cc1 (stereo partly shown) [Van035] | 2 (≈ 1.14 µM) | 8 (≈ 4.56 µM) | – | – | – |
| CCCCCCCCCC(=O)NC1(C)C[C@H](O[C@H]2C(Oc3c4cc5cc3Oc3ccc(cc3Cl)[C@@H](O)[C@@H](NC(=O)[C@@H](CC(C)C)NC)C(=O)N[C@@H](CC(N)=O)C(=O)N[C@H]5C(=O)N[C@H]3C(=O)N[C@H](C(=O)N[C@H](C(=O)O)c5cc(O)c(CNCCCNC(=O)[C@H](O)[C@@H](O)[C@H](O)[C@H](O)CO)c(O)c5-c5cc3ccc5O)[C@H](O)c3ccc(c(Cl)c3)O4)O[C@H](CO)C(O)C2O)CC(C)[C@H]1O (stereo partly shown) [Van026] | – | – | 32 (≈ 17.2 µM) | 64 (≈ 34.3 µM) | – |
| CCc1ccc(CNC2(C)C[C@H](O[C@H]3C(Oc4c5cc6cc4Oc4ccc(cc4Cl)[C@@H](O)[C@@H](NC(=O)[C@@H](CC(C)C)NC)C(=O)N[C@@H](CC(N)=O)C(=O)N[C@H]6C(=O)N[C@H]4C(=O)N[C@H](C(=O)N[C@H](C(=O)O)c6cc(O)c(CNCCCNC(=O)[C@H](O)[C@@H](O)[C@H](O)[C@H](O)CO)c(O)c6-c6cc4ccc6O)[C@H](O)c4ccc(c(Cl)c4)O5)O[C@H](CO)C(O)C3O)CC(C)[C@H]2O)cc1 (stereo partly shown) [Van018] | – | – | 4 (≈ 2.19 µM) | 8 (≈ 4.37 µM) | – |
| CN[C@H](CC(C)C)C(=O)N[C@H]1C(=O)N[C@@H](CC(N)=O)C(=O)N[C@H]2C(=O)N[C@H]3C(=O)N[C@H](C(=O)N[C@H](C(=O)O)c4cc(O)c(CNCCO[C@H]5OC(CO)[C@@H](O)C(O)C5O)c(O)c4-c4cc3ccc4O)[C@H](O)c3ccc(c(Cl)c3)Oc3cc2cc(c3OC2O[C@H](CO)C(O)C(O)[C@H]2O[C@@H]2CC(C)[C@@H](O)C(C)(NCc3ccc(-c4ccc(Cl)cc4)cc3)C2)Oc2ccc(cc2Cl)[C@H]1O (stereo partly shown) [Van013] | 2 (≈ 1.06 µM) | 4 (≈ 2.12 µM) | – | – | – |
| CCCCCCCCCCNCCNC1(C)C[C@H](O[C@@H]2C(O)C(O)[C@@H](CO)O[C@H]2Oc2c3cc4cc2Oc2ccc(cc2Cl)[C@@H](O)[C@@H](NC(=O)[C@@H](CC(C)C)NC)C(=O)N[C@@H](CC(N)=O)C(=O)N[C@H]4C(=O)N[C@@H]2C(=O)N[C@H](C(=O)N[C@H](C(=O)O)c4cc(O)c(CNC5C(O)OC(CO)[C@@H](O)[C@@H]5O)c(O)c4-c4cc2ccc4O)[C@H](O)c2ccc(c(Cl)c2)O3)O[C@@H](C)[C@H]1O (stereo partly shown) [Van006] | – | – | 8 (≈ 4.39 µM) | – | MIC Mu50 ([2]; S. aureus Mu50, 37° C., 16 h): 32 µg/mL (≈ 17.5 µM) |
| CCCCCCCCCCNCCNC1(C)C[C@H](O[C@H]2C(Oc3c4cc5cc3Oc3ccc(cc3Cl)[C@@H](O)[C@@H](NC(=O)[C@@H](CC(C)C)NC)C(=O)N[C@@H](CC(N)=O)C(=O)N[C@H]5C(=O)N[C@H]3C(=O)N[C@H](C(=O)N[C@H](C(=O)O)c5cc(O)c(CNCCO[C@@H]6OC(CO)[C@H](O)C(O)C6O)c(O)c5-c5cc3ccc5O)[C@H](O)c3ccc(c(Cl)c3)O4)O[C@H](CO)C(O)C2O)OC(C)[C@H]1O (stereo partly shown) [Van002] | – | – | 0.5 (≈ 0.268 µM) | 2 (≈ 1.07 µM) | – |
| CCCCCc1ccc(CNC2(C)C[C@H](O[C@H]3C(Oc4c5cc6cc4Oc4ccc(cc4Cl)[C@@H](O)[C@@H](NC(=O)[C@@H](CC(C)C)NC)C(=O)N[C@@H](CC(N)=O)C(=O)N[C@H]6C(=O)N[C@H]4C(=O)N[C@H](C(=O)N[C@H](C(=O)O)c6cc(O)c(CNCCCNC(=O)[C@H](O)[C@@H](O)[C@H](O)[C@H](O)CO)c(O)c6-c6cc4ccc6O)[C@H](O)c4ccc(c(Cl)c4)O5)O[C@H](CO)C(O)C3O)CC(C)[C@H]2O)cc1 (stereo partly shown) [Van031] | – | – | 0.125 (≈ 0.0668 µM) | 0.5 (≈ 0.267 µM) | – |

Source: US10961278B2, “Vancomycin derivative, preparation method, pharmaceutical composition and use thereof” (SHANGHAI INSTITUTE OF MATERIA MEDICA, CHINESE ACADEMY OF …, priority 2016, dated 2021)
